Experiments:
[1] = Antiinflammatory activity against mouse Y16 cells assessed as inhibition of IL5 production at 30 uM; assay type: functional
[2] = Antiinflammatory activity against mouse Y16 cells assessed as inhibition of IL5 production; assay type: functional, cell-based
[3] = Antiinflammatory activity against mouse Y16 cells assessed as inhibition of IL5 production at 50 uM; assay type: functional

SMILES	IC50 [2] [µM]	inhibition at 30 µM [1] [%]	inhibition at 50 µM [3] [%]
CC(C)CCOc1cccc2occ(Cc3ccc(O)cc3)c(=O)c12	> 30	36	–
O=c1c(/C=N/O)coc2cccc(OCC3CCCCC3)c12	> 30	< 10	–
CC(C)COc1cccc2occ(CCC(=O)O)c(=O)c12	> 30	< 10	–
CC(C)COc1cccc2occ(/C=N/O)c(=O)c12	> 30	< 10	–
CCc1ccc(Cc2coc3cccc(OCC4CCCCC4)c3c2=O)cc1	> 30	45	–
CC(C)COc1cccc2occ(C(=O)O)c(=O)c12	> 30	33	–
CC(C)COc1cccc2occ(CCl)c(=O)c12	> 30	43	–
Cc1ccc(Cc2coc3cccc(OCC4CCCCC4)c3c2=O)cc1	14.8	86	–
O=c1c(CO)coc2cccc(OCC3CCCCC3)c12	7.6	84	–
O=c1c(Cc2ccccc2)coc2cccc(OCC3CCCCC3)c12	22.9	56	–

More lines, main results first:

IC50 [2] [µM]	SMILES	inhibition at 30 µM [1] [%]	inhibition at 50 µM [3] [%]
> 30	Cc1ccc(Cc2coc3cccc(OCCC(C)C)c3c2=O)cc1	35	–
> 30	NS(=O)(=O)c1ccc(Cc2coc3cccc(OCC4CCCCC4)c3c2=O)cc1	31	–
11.4	CC(C)COc1cccc2occ(Cc3ccc(C(=O)O)cc3)c(=O)c12	73	–
> 30	O=c1c(CCl)coc2cccc(OCC3CCCCC3)c12	45	–
12.5	COc1cc(Cc2coc3cccc(OCC4CCCCC4)c3c2=O)cc(OC)c1OC	85	–
12.3	O=C(O)c1ccc(Cc2coc3cccc(OCC4CCCCC4)c3c2=O)cc1	77	–
21.6	CC(C)COc1cccc2occ(CO)c(=O)c12	56	–
10.3	O=c1c(-c2ccc(O[C@@H]3O[C@H](CO)[C@@H](O)[C@H](O)[C@H]3O)cc2)coc2cc(O)cc(O)c12 [SOPHORICOSIDE]	–	93.8
> 30	O=C(O)c1coc2cccc(OCC3CCCCC3)c2c1=O	43	–
> 30	O=C(O)CCc1coc2cccc(OCC3CCCCC3)c2c1=O	< 10	–
> 30	O=c1c(Cc2ccc(Cl)cc2)coc2cccc(OCC3CCCCC3)c12	36	–
< 3	O=c1c(Cc2ccc(O)cc2)coc2cccc(OCC3CCCCC3)c12	98	–
> 30	O=c1c(Cc2ccc(C(F)(F)F)cc2)coc2cccc(OCC3CCCCC3)c12	47	–

Source: ChEMBL document CHEMBL1165891, “Synthesis and evaluation of novel chromone analogs for their inhibitory activity against interleukin-5” (Eur J Med Chem, 2010)
